Experimental data published in the NIST ThermoML archive (doi:10.1016/j.jct.2016.03.034).
± gives the expanded uncertainty stated by the source.

Test: xn = mol fraction of the nth substance listed
Settings: 100 kPa, Liquid; for viscosity: Capillary tube (Ostwald / Ubbelohde) method; for mass density: Vibrating tube method

O=C1CCCO1 [γ-butyrolactone] + CCn1cc[n+](C)c1.O=S(=O)([N-]S(=O)(=O)C(F)(F)F)C(F)(F)F
Settings	mass density [kg/m3]	viscosity [mPa·s]
293.15 K, x2 = 0	1129.49 ± 9	1.86 ± 0.08
293.15 K, x2 = 0.05	1189.18 ± 9.7	2.57 ± 0.11
293.15 K, x2 = 0.0995	–	3.12 ± 0.13
293.15 K, x2 = 0.0996	1236.95 ± 10	–
293.15 K, x2 = 0.1502	1277.22 ± 10	3.83 ± 0.16
293.15 K, x2 = 0.2006	1310.83 ± 11	4.63 ± 0.19
293.15 K, x2 = 0.3	–	6.64 ± 0.27
293.15 K, x2 = 0.3001	1363.28 ± 11	–
293.15 K, x2 = 0.4	–	9.2 ± 0.38
293.15 K, x2 = 0.4021	1403.82 ± 11	–
293.15 K, x2 = 0.4899	–	11.95 ± 0.49
293.15 K, x2 = 0.4992	1434.01 ± 11	–
293.15 K, x2 = 0.6103	1461.49 ± 12	16.41 ± 0.67
293.15 K, x2 = 0.6912	1478 ± 12	–
293.15 K, x2 = 0.6995	–	20.33 ± 0.83
293.15 K, x2 = 0.7817	1493.78 ± 12	–
293.15 K, x2 = 0.7927	–	24.88 ± 1
293.15 K, x2 = 0.8991	1510.97 ± 12	30.67 ± 1.2
293.15 K, x2 = 0.9532	–	34.26 ± 1.4
298.15 K, x2 = 0	1124.59 ± 9	1.71 ± 0.07
298.15 K, x2 = 0.05	1184.22 ± 9.6	2.41 ± 0.1
298.15 K, x2 = 0.0995	–	2.94 ± 0.12
298.15 K, x2 = 0.0996	1231.94 ± 9.9	–
298.15 K, x2 = 0.1502	1272.16 ± 10	3.61 ± 0.15
298.15 K, x2 = 0.2006	1305.75 ± 10	4.35 ± 0.18
298.15 K, x2 = 0.3	–	6.16 ± 0.25
298.15 K, x2 = 0.3001	1358.16 ± 11	–
298.15 K, x2 = 0.4	–	8.37 ± 0.34
298.15 K, x2 = 0.4021	1398.7 ± 11	–
298.15 K, x2 = 0.4899	–	10.72 ± 0.44
298.15 K, x2 = 0.4992	1428.88 ± 11	–
298.15 K, x2 = 0.6103	1456.36 ± 12	14.47 ± 0.59
298.15 K, x2 = 0.6912	1472.86 ± 12	–
298.15 K, x2 = 0.6995	–	17.71 ± 0.72
298.15 K, x2 = 0.7817	1488.64 ± 12	–
298.15 K, x2 = 0.7927	–	21.48 ± 0.87
298.15 K, x2 = 0.8991	1505.84 ± 12	26.32 ± 1.1
298.15 K, x2 = 0.9532	–	29.01 ± 1.2
303.15 K, x2 = 0	1119.68 ± 9	1.58 ± 0.06
303.15 K, x2 = 0.05	1179.23 ± 9.6	2.24 ± 0.09
303.15 K, x2 = 0.0995	–	2.71 ± 0.11
303.15 K, x2 = 0.0996	1226.88 ± 9.9	–
303.15 K, x2 = 0.1502	1267.09 ± 10	3.3 ± 0.14
303.15 K, x2 = 0.2006	1300.66 ± 10	3.97 ± 0.16
303.15 K, x2 = 0.3	–	5.57 ± 0.23
303.15 K, x2 = 0.3001	1353.03 ± 11	–
303.15 K, x2 = 0.4	–	7.49 ± 0.31
303.15 K, x2 = 0.4021	1393.55 ± 11	–
303.15 K, x2 = 0.4899	–	9.49 ± 0.39
303.15 K, x2 = 0.4992	1423.73 ± 11	–
303.15 K, x2 = 0.6103	1451.19 ± 12	12.66 ± 0.51
303.15 K, x2 = 0.6912	1467.67 ± 12	–
303.15 K, x2 = 0.6995	–	15.38 ± 0.63
303.15 K, x2 = 0.7817	1483.46 ± 12	–
303.15 K, x2 = 0.7927	–	18.53 ± 0.75
303.15 K, x2 = 0.8991	1500.66 ± 12	22.48 ± 0.91
303.15 K, x2 = 0.9532	–	24.66 ± 1
308.15 K, x2 = 0	1114.78 ± 8.9	1.47 ± 0.06
308.15 K, x2 = 0.05	1174.26 ± 9.5	2.07 ± 0.09
308.15 K, x2 = 0.0995	–	2.48 ± 0.1
308.15 K, x2 = 0.0996	1221.85 ± 9.9	–
308.15 K, x2 = 0.1502	1262.03 ± 10	3.03 ± 0.12
308.15 K, x2 = 0.2006	1295.56 ± 10	3.66 ± 0.15
308.15 K, x2 = 0.3	–	5.09 ± 0.21
308.15 K, x2 = 0.3001	1347.9 ± 11	–
308.15 K, x2 = 0.4	–	6.72 ± 0.27
308.15 K, x2 = 0.4021	1388.4 ± 11	–
308.15 K, x2 = 0.4899	–	8.39 ± 0.34
308.15 K, x2 = 0.4992	1418.56 ± 11	–
308.15 K, x2 = 0.6103	1446.01 ± 12	11.08 ± 0.45
308.15 K, x2 = 0.6912	1462.49 ± 12	–
308.15 K, x2 = 0.6995	–	13.34 ± 0.54
308.15 K, x2 = 0.7817	1478.28 ± 12	–
308.15 K, x2 = 0.7927	–	15.98 ± 0.65
308.15 K, x2 = 0.8991	1495.47 ± 12	19.26 ± 0.78
308.15 K, x2 = 0.9532	–	21.15 ± 0.86
313.15 K, x2 = 0	1109.87 ± 8.9	1.37 ± 0.06
313.15 K, x2 = 0.05	1169.29 ± 9.5	1.92 ± 0.08
313.15 K, x2 = 0.0995	–	2.32 ± 0.1
313.15 K, x2 = 0.0996	1216.89 ± 9.8	–
313.15 K, x2 = 0.1502	1257.03 ± 10	2.81 ± 0.12
313.15 K, x2 = 0.2006	1290.56 ± 10	3.37 ± 0.14
313.15 K, x2 = 0.3	–	4.63 ± 0.19
313.15 K, x2 = 0.3001	1342.87 ± 11	–
313.15 K, x2 = 0.4	–	6.09 ± 0.25
313.15 K, x2 = 0.4021	1383.33 ± 11	–
313.15 K, x2 = 0.4899	–	7.55 ± 0.31
313.15 K, x2 = 0.4992	1413.46 ± 11	–
313.15 K, x2 = 0.6103	1440.89 ± 12	9.84 ± 0.4
313.15 K, x2 = 0.6912	1457.37 ± 12	–
313.15 K, x2 = 0.6995	–	11.77 ± 0.48
313.15 K, x2 = 0.7817	1473.14 ± 12	–
313.15 K, x2 = 0.7927	–	13.93 ± 0.57
313.15 K, x2 = 0.8991	1490.3 ± 12	16.67 ± 0.68
313.15 K, x2 = 0.9532	–	18.26 ± 0.74
318.15 K, x2 = 0	1104.96 ± 8.8	1.28 ± 0.05
318.15 K, x2 = 0.05	1164.33 ± 9.5	1.76 ± 0.07
318.15 K, x2 = 0.0995	–	2.12 ± 0.09
318.15 K, x2 = 0.0996	1211.89 ± 9.8	–
318.15 K, x2 = 0.1502	1252 ± 10	2.57 ± 0.11
318.15 K, x2 = 0.2006	1285.51 ± 10	3.07 ± 0.13
318.15 K, x2 = 0.3	–	4.15 ± 0.17
318.15 K, x2 = 0.3001	1337.8 ± 11	–
318.15 K, x2 = 0.4	–	5.46 ± 0.22
318.15 K, x2 = 0.4021	1378.25 ± 11	–
318.15 K, x2 = 0.4899	–	6.65 ± 0.27
318.15 K, x2 = 0.4992	1408.36 ± 11	–
318.15 K, x2 = 0.6103	1435.77 ± 12	8.6 ± 0.35
318.15 K, x2 = 0.6912	1452.23 ± 12	–
318.15 K, x2 = 0.6995	–	10.2 ± 0.41
318.15 K, x2 = 0.7817	1467.99 ± 12	–
318.15 K, x2 = 0.7927	–	12.07 ± 0.49
318.15 K, x2 = 0.8991	1485.13 ± 12	14.42 ± 0.59
318.15 K, x2 = 0.9532	–	15.79 ± 0.64
323.15 K, x2 = 0	1100.05 ± 8.8	1.2 ± 0.05
323.15 K, x2 = 0.05	1159.37 ± 9.4	1.66 ± 0.07
323.15 K, x2 = 0.0995	–	2.02 ± 0.08
323.15 K, x2 = 0.0996	1206.9 ± 9.8	–
323.15 K, x2 = 0.1502	1247.02 ± 10	2.42 ± 0.1
323.15 K, x2 = 0.2006	1280.5 ± 10	2.89 ± 0.12
323.15 K, x2 = 0.3	–	3.89 ± 0.16
323.15 K, x2 = 0.3001	1332.77 ± 11	–
323.15 K, x2 = 0.4	–	4.97 ± 0.2
323.15 K, x2 = 0.4021	1373.17 ± 11	–
323.15 K, x2 = 0.4899	–	6.15 ± 0.25
323.15 K, x2 = 0.4992	1403.26 ± 11	–
323.15 K, x2 = 0.6103	1430.64 ± 11	7.81 ± 0.32
323.15 K, x2 = 0.6912	1447.09 ± 12	–
323.15 K, x2 = 0.6995	–	9.19 ± 0.37
323.15 K, x2 = 0.7817	1462.82 ± 12	–
323.15 K, x2 = 0.7927	–	10.76 ± 0.44
323.15 K, x2 = 0.8991	1479.92 ± 12	12.78 ± 0.52
323.15 K, x2 = 0.9532	–	13.93 ± 0.57
